Data: publication PMC8881069, “Thio- and selenosemicarbazones as antiprotozoal agents against Trypanosoma cruzi and Trichomonas vaginalis” (Journal of Enzyme Inhibition and Medicinal Chemistry, 2022)

Legend:
[1] = tested on: Trypanosoma cruzi CL-B5 (DTU TcVI) epimastigotes; assay: CL-B5 lacZ epimastigote susceptibility assay (CPRG); format: cell-based; conditions: T. cruzi CL-B5 lacZ epimastigotes, 72 h, mean ± SD, n = 3
[2] = tested on: L929 cells; assay: Unspecific cytotoxicity assay on L929 fibroblasts (resazurin); format: cell-based; conditions: mean ± SD, n = 3; for CC50 at 72 h: mouse; for CC50: 72 h
[3] = tested on: Trichomonas vaginalis; assay: Trichomonacidal in vitro assay (resazurin); format: cell-based; conditions: isolate JH31A#4, 24 h, brackets: 95% confidence interval
[4] = tested on: Vero cells; assay: Unspecific cytotoxicity assay in Vero cells (resazurin); format: cell-based, African green monkey; conditions: for CC50 at 24 h: African green monkey; for CC50 at 24 h / CC50: Vero cells, brackets: 95% confidence interval, 24 h; for unspecific cytotoxicity towards Vero cells (in words): highest concentration evaluated (300 µM)
[5] = tested on: hydrogenosome membrane potential of T. vaginalis; assay: Hydrogenosomal membrane potential assay (JC-1); conditions: Figure 3; 4 h; 51 and 63 at 100 µM, MTZ 24 µM, CCCP 50 µM
[6] = tested on: J774 cells; assay: Unspecific cytotoxicity assay on J774 macrophages (resazurin); format: cell-based, mouse; conditions: mouse, mean ± SD, n = 3
[7] = tested on: Trypanosoma cruzi CL-B5 amastigotes; assay: CL-B5 lacZ intracellular amastigote susceptibility assay (CPRG); format: cell-based; conditions: Trypanosoma cruzi, 168 h; intracellular amastigotes in L929 cells, 7 days, mean ± SD, n = 3
[8] = tested on: Trypanosoma cruzi Y (DTU TcII) epimastigotes; assay: Y strain epimastigote susceptibility assay (resazurin); format: cell-based; conditions: Trypanosoma cruzi; T. cruzi Y strain epimastigotes, 48 h, mean ± SD, n = 3
[9] = Vero CCL-81 cells (kidney epithelial cells)

Row | SMILES | IC50 ([1]; Trypanosoma cruzi) [µM] | CC50 at 72 h [2] [µM] | IC50 ([3]; Trichomonas vaginalis, 24 h) [µM] | CC50 at 24 h [4, 9] [µM] | other results
1 | Oc1ccc(/C=N/NC(=S)Nc2ccc(Br)cc2)cc1 [Compound 47] | 42.8 ± 12 | 67 ± 5.43 | 52.4 |  | 
2 | COc1ccc(/C=N/NC(=S)Nc2ccc(Br)cc2)cc1 [Compound 48] | > 256 | > 256 | 55.1 |  | 
3 | Oc1ccc(/C=N/NC(=S)Nc2ccc(Br)cc2)cc1O [Compound 49] | 104 ± 15.7 | 16.7 ± 0.7 | 11.1 | ≥ 275 | IC50 [3]: 16.4 µM; CC50 [4]: > 300 µM; unspecific cytotoxicity towards Vero cells (in words) [4]: did not exhibit unspecific cytotoxicity
4 | Oc1ccc(/C=N/NC(=S)Nc2ccc(I)cc2)cc1 [Compound 50] | 22.8 ± 1.61 | 41.4 ± 8.36 | 42.2 | > 300 | 
5 | COc1ccc(/C=N/NC(=S)Nc2ccc(I)cc2)cc1 [Compound 51] | > 256 | > 256 | 14.8 | ≥ 275 | IC50 [3]: 14.8 µM; JC-1 fluorescence distribution in trophozoites (fluorescence microscopy) [5]: fluorescence restricted to certain regions of the parasite; CC50 [4]: > 300 µM; unspecific cytotoxicity towards Vero cells (in words) [4]: did not exhibit unspecific cytotoxicity
6 | Oc1ccc(/C=N/NC(=S)Nc2ccc(I)cc2)cc1O [Compound 52] | 69.4 ± 4.73 | 20.8 ± 7.92 | 24.9 | > 300 | 
7 | O=[N+]([O-])c1ccccc1NC(=S)N/N=C/c1ccc(O)cc1 [Compound 53] | 21.8 ± 2.98 | 34.9 ± 8.65 | 92.8 |  | 
8 | COc1ccc(/C=N/NC(=S)Nc2ccccc2[N+](=O)[O-])cc1 [Compound 54] | 210 ± 14.5 | > 256 | 34.2 | > 300 | 
9 | O=[N+]([O-])c1ccccc1NC(=S)N/N=C/c1ccc(O)c(O)c1 [Compound 55] | 42 ± 9.06 | 21.4 ± 4.12 | 133 |  | 
10 | O=[N+]([O-])c1cccc(NC(=S)N/N=C/c2ccc(O)cc2)c1 [Compound 56] | 36.9 ± 3.84 | 28.8 ± 3.25 | 24.3 | 169 | 
11 | COc1ccc(/C=N/NC(=S)Nc2cccc([N+](=O)[O-])c2)cc1 [Compound 57] | 23 ± 6.33 | > 256 | 51.9 |  | CC50 at 48 h [6]: > 256 µM; IC50 [7]: 22.3 ± 4.2 µM; IC50 [8]: > 256 µM
12 | O=[N+]([O-])c1cccc(NC(=S)N/N=C/c2ccc(O)c(O)c2)c1 [Compound 58] | 33.8 ± 7.59 | 12 ± 1.42 | 73.4 |  | 
13 | O=[N+]([O-])c1ccc(NC(=S)N/N=C/c2ccc(O)cc2)cc1 [Compound 59] | 76.4 ± 9.91 | 29.4 ± 2.52 | 36 | 254 | 
14 | COc1ccc(/C=N/NC(=S)Nc2ccc([N+](=O)[O-])cc2)cc1 [Compound 60] | > 256 | > 256 | 155 |  | 
15 | O=[N+]([O-])c1ccc(NC(=S)N/N=C/c2ccc(O)c(O)c2)cc1 [Compound 61] | 111 ± 14.8 | 5.37 ± 0.3 | 128 |  | 
16 | O=[N+]([O-])c1ccc(/C=N/NC(=S)Nc2ccc([N+](=O)[O-])cc2)cc1 [Compound 62] | > 256 | 53.5 ± 4.82 | 152 |  | 
17 | Oc1ccc(/C=N/NC(=S)Nc2cccc3ccccc23)cc1 [Compound 63] |  |  |  |  | IC50 [1]: 53.6 ± 11.3 µM; CC50 [2]: 31.1 ± 9.21 µM; IC50 [3]: 14.9 µM; JC-1 fluorescence distribution in trophozoites (fluorescence microscopy) [5]: fluorescence restricted to certain regions of the parasite; CC50 [4]: 275 µM
18 | COc1ccc(/C=N/NC(=S)Nc2cccc3ccccc23)cc1 [Compound 64] |  |  |  |  | IC50 [1]: > 256 µM; CC50 [2]: > 256 µM; IC50 [3]: 30.5 µM; CC50 [4]: > 300 µM
19 | Oc1ccc(/C=N/NC(=S)Nc2cccc3ccccc23)cc1O [Compound 65] |  |  |  |  | IC50 [1]: 70.2 ± 6.99 µM; CC50 [2]: 28.8 ± 7.77 µM; IC50 [3]: 20.1 µM; CC50 [4]: 175 µM
20 | Oc1ccc(/C=N/NC(=[Se])Nc2ccc(Br)cc2)cc1O [Compound 74] |  |  | 11.1 |  | CC50 at 24 h [4]: 114 µM
21 | COc1ccc(/C=N/NC(=[Se])Nc2ccc(I)cc2)cc1 [Compound 75] |  |  | 11 |  | unspecific cytotoxicity towards Vero cells (in words) [4]: did not present toxic effects at the maximum concentration tested
22 | Cc1ncc([N+](=O)[O-])n1CCO [Metronidazole, metronidazole, reference compound] |  |  | 2.68 | > 300 | JC-1 fluorescence distribution in trophozoites (fluorescence microscopy) [5]: fluorescence restricted to certain regions of the parasite
